The numbers were not newly measured in paper PMC10930872, “Preparation, Structural Identification, and Screening of Egg-Derived Peptides with Facilitating Alcohol Metabolism Activity” (Foods, 2024), which cites them from elsewhere.

For one series, the system named is hepatic ADH. To be noted: ref [42],[43]. The source says:
This has to do with the fact that eggs contain all EAAs. […] Ala is involved in hepatic gluconeogenesis, which oxidizes NADH + H^+ to NAD^+, thereby maintaining cytoplasmic NAD^+ concentrations and promoting alcohol metabolism. […] It is reported that HAA (Tyr, Trp, Gl ...

In another series the test system is ethanol dehydrogenase. Details: method as in doi:10.1016/j.lwt.2022.113376. To be noted: ref [36].
Series [1] addresses T1, alcohol dehydrogenase (ADH) (Saccharomyces cerevisiae, UniProt P00330).
T1 sequence (P00330 1-348): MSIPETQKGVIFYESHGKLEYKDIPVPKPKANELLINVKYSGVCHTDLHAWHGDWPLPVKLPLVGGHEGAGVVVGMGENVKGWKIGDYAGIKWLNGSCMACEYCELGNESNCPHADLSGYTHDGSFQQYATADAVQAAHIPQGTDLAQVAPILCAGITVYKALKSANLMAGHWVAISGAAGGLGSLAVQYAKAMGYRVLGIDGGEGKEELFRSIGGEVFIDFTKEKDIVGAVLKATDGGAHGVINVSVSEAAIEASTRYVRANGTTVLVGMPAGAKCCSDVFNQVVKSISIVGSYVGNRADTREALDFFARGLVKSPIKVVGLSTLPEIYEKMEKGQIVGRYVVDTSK
To be noted: pentapeptide screened by Zan et al., 2023; ref [59]; read-out: EC50 of ADH activation. The source says: GSH, a tripeptide composed of Glu, Cys, and Gly, is widely found in normal human cells, with the highest concentration in the liver. It plays an important role in scavenging free radicals, inhibiting inflammatory factors, relieving hangovers, and protecting the liver.

As for `CC(C)C[C@H](N)C(=O)O` [Leu, L-leucine], in the series on hepatic ADH, the “Hepatic ADH activity” value is reported as “significantly increase hepatic ADH activity”.
On to “Lys-Pro-Cys [KPC, chicken-derived tripeptide]”, for which, in the series on ethanol dehydrogenase, the “Stability of ethanol dehydrogenase” value is recorded as “enhanced the stability of ethanol dehydrogenase”.
As usually defined, the EC50 is the concentration at which the effect is half-maximal. Turning to “ILPHF [pentapeptide screened by Zan et al., 2023]”, the EC50 in series [1] was 1600 nM.
